We go through 4 compounds from PMC6568278 (Chemical Science, 2019).

Format in all cases: cell-based
The test system of one test is rat aortic VSMCs. Briefly: PDGF-induced VSMC proliferation. The note with it: PDGF-activated rat aortic VSMCs.
In another test the test system is NF-κB. The following applies: HEK-293/NF-κB-luc cells.
Another test relates to human umbilical vein ECs. Briefly: Endothelial cell. The following applies: 30 μM.

Consider `COc1ccc(C[C@H]2CO[C@H](c3ccc(OC)c(OC)c3)[C@H]2COC(=O)C=C(C)C)cc1OC` [1b, ((2S,3R,4R)-4-(3,4-Dimethoxybenzyl)-2-(3,4-dimethoxyphenyl)tetrahydrofuran-3-yl)methyl 3-methylbut-2-enoate], for which, in the test on rat aortic VSMCs, the “VSMC proliferation inhibition (in words)” value was “remained unaffected”. In addition, the “NF-κB inhibition (in words)” value in the test with NF-κB was “much more suppressive effect”.

Take `COc1ccc(C[C@H]2CO[C@H](c3ccc(OC)c(OC)c3)[C@H]2COC(=O)CC(C)C)cc1OC` [1c]: in the test on rat aortic VSMCs, the “VSMC proliferation inhibition (in words)” value was “no effect”. Besides, the “NF-κB inhibition (in words)” value in the test on NF-κB is given as “similarly strong inhibition to 1b”.

In the case of `C/C=C(/C)C(=O)OC[C@H]1[C@@H](Cc2ccc(C(F)(F)F)cc2)CO[C@@H]1c1ccc(F)cc1` [1j, (Z)-((2S,3R,4R)-2-(4-Fluorophenyl)-4-(4-(trifluoromethyl)benzyl)tetrahydrofuran-3-yl)methyl 2-methylbut-2-enoate], the “EC proliferation inhibition (in words)” value in the test with human umbilical vein ECs was “no inhibition”. Besides, the “NF-κB inhibition (in words)” value with NF-κB is given as “no inhibition”.

Regarding `COc1ccc([C@H]2OC[C@H](Cc3ccc(C(C)(C)C)cc3)[C@@H]2CO)cc1OC` [7b, ((2S,3R,4R)-4-(4-(tert-Butyl)benzyl)-2-(3,4-dimethoxyphenyl)tetrahydrofuran-3-yl)methanol], the “VSMC proliferation inhibition (in words)” value with rat aortic VSMCs is “much more active”. Besides, the “NF-κB inhibition (in words)” value with NF-κB is “inactive”.
